Structures are written as SMILES. Several values for one entry are separate records, joined by “and”; a condition that tells them apart may be missing. Identical values can stand only once.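 Where inhibition never reached the appropriate level, the endpoint shown equals the highest concentration tested. Otherwise, values were interpolated linearly from a five-concentration, 48-hour dose response in 96-well plates. GI50 is the concentration that inhibits growth by half. At the TGI there is no net growth.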

What all share (experiment): inhibition of tumour cell growth, NCI panel, 48 h
Assay [1] has as its system OVCAR-3 ovarian.
In assay [2] the test system is A498 renal.
The test system of assay [3] is NCI-H460 lung.
Assay [4] has as its system A549 NSCLC.
Assay [5] deals with NCI-H226 lung.
For assay [6], the system named is UO-31 renal.
Assay [7] concerns RXF 393 renal.
The subject of assay [8] is SNB-19 CNS.
Assay [9] concerns TK-10 renal.
Assay [10] has as its system M14 melanoma.

As for `Cc1cc(C2CCCCC2)n(O)c(=O)c1`, the GI50 was 0.521 µM in assay [1]; 7 µM in [2]; 0.507 µM in assay [3]; 1.34 µM in assay [4]; 2.2 µM in assay [5]; 0.552 µM in assay [6]. The GI50 in assay [7] is 3.02 µM; in assay [8], 2.37 µM; in [9], 9.91 µM; in assay [10], 1.39 µM. For the same compound, the TGI in assay [1] is 54 µM; in assay [2], > 100 µM and 46.7 µM; in [4], more than 100 µM; in assay [5], more than 100 µM; in assay [6], more than 100 µM; in assay [7], > 100 µM and 97.2 µM. Moreover, the TGI in assay [8] and in assay [9] was more than 100 µM in each case.
With `Cc1cccc(N2C(=O)C(Cl)=C(Cl)C2=O)c1`, the TGI is more than 80.5 µM in assay [1]; more than 100 µM in assay [2]; more than 100 µM in assay [3]; more than 100 µM in [4]; more than 100 µM in [5]; more than 100 µM in [6]. Moreover, the TGI in [7] was 30.7 µM; in [8] it was more than 100 µM; in [9], more than 100 µM; in assay [10] it was more than 100 µM.
For the compound `COC(=O)C(=O)C(C(=O)C(=O)Nc1ccc(C)cc1C)c1nc2ccccc2[nH]c1=O` (configuration not stated), the TGI was more than 100 µM in assay [1]; 58.8 µM in [2]; more than 100 µM in assay [3]; more than 100 µM in assay [4]; more than 100 µM in assay [5]; more than 100 µM in assay [6]. Moreover, the TGI in assay [7] is 60 µM; in assay [8], more than 100 µM; in assay [9] it was more than 100 µM; in assay [10] it was more than 100 µM.
Regarding `CCCNC(=S)N/N=C(\C)c1ccccn1`, the GI50 in [1] was less than 0.01 µM; in assay [2], 0.435 µM; in assay [3] it was 0.242 µM; in assay [4], 0.447 µM; in assay [5] it was 0.291 µM; in assay [6] it was 0.293 µM. The GI50 in assay [7] is 0.847 µM; in [8], 1.81 µM; in assay [9] it was 0.71 µM; in assay [10] it was 0.0681 µM. For the same compound, the TGI in assay [1] was more than 100 µM; in assay [2], 4.83 µM; in [3] it was 4.92 µM; in assay [4], more than 100 µM; in assay [5], 4.79 µM; in assay [6], more than 82.8 µM. In addition, the TGI in [7] was 6.55 µM; in assay [8], more than 100 µM; in assay [9], more than 100 µM; in assay [10], 3.65 µM.
Turning to `C#CC[C@]12CC(=O)CC[C@H]1CC(=O)C2`, the TGI in assay [1], in assay [2], in [3], in assay [4], in assay [5] and in assay [6] was more than 100 µM each time. The TGI in assay [7], in [8], in assay [9] and in [10] was more than 100 µM in each case.
Take `O=C(O)C(Sc1ccc(Cl)cc1)Sc1ccc(Cl)cc1`: the TGI in assay [1] is 82.6 µM; in [2], 95.5 µM; in [3], more than 100 µM; in assay [4], more than 100 µM; in assay [5], more than 100 µM; in [6] it was more than 100 µM. The TGI in assay [7], in [8], in assay [9] and in assay [10] was more than 100 µM in each case.
For the compound `COc1cc(Cn2c(-c3ccccc3)cc3c2-c2oncc2CC3)cc(OC)c1OC`, the GI50 in [1] is 0.372 µM; in [2], 0.271 µM; in assay [3] it was 0.452 µM; in assay [4], 1.15 µM; in [5] it was 3.76 µM; in assay [6], 3.23 µM. Besides, the GI50 in assay [7] was 1.36 µM; in assay [8], 1.93 µM; in [9], 7.7 µM; in assay [10], 0.468 µM. In addition, the TGI in [1] was 1.65 µM; in assay [2], 2.06 µM; in [3] it was more than 100 µM; in [4], more than 100 µM; in assay [5], more than 100 µM; in [6], more than 100 µM. Besides, the TGI is 50.5 µM in assay [7], more than 100 µM in assay [8], more than 100 µM in [9] and 13.4 µM in [10].
For the compound `CCC1(O)C(=O)OCc2c1cc1n(c2=O)Cc2cc3c(N)cccc3nc2-1` (configuration not stated), the TGI in [1] stood at 3.02 µM; in [2], 1.39 µM; in [3], 1.13 µM; in assay [4], 10.8 µM; in assay [5], 0.0597 µM; in [6] it was 0.126 µM. The TGI in assay [7] is 0.348 µM; in assay [8], 26.1 µM; in assay [9], 35.8 µM; in assay [10] it was 0.0872 µM. Moreover, the GI50 in assay [10] is less than 0.01 µM.
Regarding `N#Cc1cnsc1`, the TGI in [1], in assay [2], in assay [3], in assay [4], in assay [5] and in [6] was more than 100 µM in each case. The TGI in assay [7], in [9] and in [10] was more than 100 µM in each case.
For the compound `COc1ccc(S(=O)(=O)N(Cc2ccc3c(n2)C=CC(C)(C)O3)C2CCC2)cc1OC`, the GI50 in [1] is less than 0.01 µM; in assay [2] it was less than 0.01 µM; in [3] it was 0.0196 µM; in assay [4] it was 0.0233 µM; in [5], 0.0101 µM; in [6] it was less than 0.01 µM. Besides, the GI50 in assay [7], in assay [9] and in [10] was less than 0.01 µM each time. Moreover, the TGI was 0.0955 µM in assay [1]; 0.0431 µM in [2]; 1.66 µM in assay [4]; 3.75 µM in [5]; 0.871 µM in [6]; 0.222 µM in assay [7]. For the same compound, the TGI in [9] was determined as 1.59 µM; in [10] it was 0.228 µM.
Consider `COc1cc(-c2c(C#N)c(N)n3c(nc4ccccc43)c2C#N)cc(Br)c1OC`, for which the GI50 in assay [2] was more than 100 µM; in [5], more than 100 µM; in assay [6], 4.13 µM; in [7] it was 4.37 µM; in assay [8], more than 100 µM; in [10], more than 100 µM. In addition, the TGI in assay [2], in assay [5], in assay [6], in assay [7], in assay [8] and in assay [10] was more than 100 µM in each case.
On to `C[C@]12CC[C@@H]3c4ccc(O)cc4CC[C@H]3[C@@H]1CC[C@@H]2NS(=O)(=O)c1ccc(C(F)(F)F)cc1`, for which the GI50 was 1.25 µM in assay [2]; 1.98 µM in assay [3]; 2.05 µM in assay [4]; 1.68 µM in assay [5]; 1.6 µM in assay [6]; 1.63 µM in [7]. Moreover, the figures for the GI50 in [8], in assay [9] and in assay [10] were 3.28 µM, 3.28 µM and 1.9 µM, respectively. Also, the TGI in [2] turned out to be 2.74 µM; in assay [3] it was 4.11 µM; in assay [4] it was 4.98 µM; in assay [5] it was 3.2 µM; in [6], 3.43 µM; in assay [7], 3.13 µM. The figures for the TGI in [8], in assay [9] and in assay [10] were 11.6 µM, 8.53 µM and 3.6 µM, respectively.
On to `CCOC(=O)NC(=O)c1cn(CCCOC(=O)NCCCCCCNC(=O)OCCCn2c(=O)c(C(=O)NC(=O)OCC)cn(C)c2=O)c(=O)n(C)c1=O`, for which the TGI in assay [1], in assay [2], in [3], in assay [4], in assay [5] and in assay [6] was more than 100 µM throughout. The TGI is 92.4 µM in [7], more than 100 µM in assay [9] and more than 100 µM in assay [10].
In the case of `CC(C)=[CH][Sb]([Br])([CH]=C(C)C)([CH]=C(C)C)[CH]=C(C)C`, the GI50 in assay [1] is 2.44 µM; in assay [2], 41 µM; in [3], 16.4 µM; in assay [4], 19.1 µM; in assay [6], 35.4 µM; in assay [7], 21.2 µM. Moreover, the results for the GI50 in assay [8], in assay [9] and in [10] were 14.7 µM, 34.9 µM and 10.1 µM, respectively. Also, the TGI in [1] is 59.8 µM; in [2], more than 100 µM; in [3], 54.4 µM; in assay [4], more than 100 µM; in [6] it was more than 100 µM; in assay [7] it was 81.1 µM. The values for the TGI in [8], in assay [9] and in assay [10] were 89.4 µM, more than 100 µM and 37.8 µM, respectively.
In the case of `CCCCC/C=C/C/C=C/CCCCCCCC1=NC(C)(C)CN1C(C)C`, the GI50 was 1.49 µM in assay [1]; 2.35 µM in [2]; 1.82 µM in [3]; 1.77 µM in assay [4]; 1.21 µM in [6]; 2.1 µM in assay [7]. Moreover, the GI50 in assay [8] was 1.59 µM; in assay [9] it was 1.67 µM; in assay [10], 1.85 µM. Besides, the TGI in assay [1] amounted to 2.81 µM; in assay [2], 15.5 µM; in assay [3], 3.34 µM; in assay [4], 3.2 µM; in assay [6], 2.45 µM; in assay [7], 4.8 µM. Besides, the TGI turned out to be 3 µM in [8], 3.04 µM in assay [9] and 3.4 µM in [10].
As to `COc1ccc(C2CC(=O)c3c(OC)cc(OC)cc3O2)cc1` (configuration not stated), the GI50 in assay [1], in assay [2], in [3], in [4], in [5] and in assay [6] was more than 100 µM each time. The GI50 in assay [7], in assay [8] and in assay [9] was more than 100 µM throughout. Also, the TGI in assay [1], in assay [2], in assay [3], in assay [4], in [5] and in assay [6] was more than 100 µM each time. In addition, the TGI in assay [7], in assay [8] and in assay [9] was more than 100 µM throughout.
For the compound `CCc1cccc(C)c1NC(C)=O`, the TGI in [1], in assay [2], in assay [3], in [4], in assay [5] and in [6] was more than 100 µM in each case. In addition, the TGI in assay [7], in [9] and in assay [10] was more than 100 µM throughout.
In the case of `O=C(CCCSc1nc(-c2ccc(Cl)cc2)cc(-c2ccc(Cl)cc2)n1)NO`, the GI50 was 0.413 µM in assay [1]; 1.41 µM in assay [2]; 0.44 µM in assay [3]; 1.59 µM in assay [4]; 2.17 µM in [5]; 0.32 µM in assay [6]. The GI50 in [7] was 0.347 µM; in assay [8] it was 1.92 µM; in assay [9], 0.853 µM. The TGI in assay [1] turned out to be 2.14 µM; in [2] it was 4.26 µM; in assay [3] it was 4.11 µM; in [4], 12.4 µM; in [5], 11.6 µM; in assay [6], 2.35 µM. For the same compound, the TGI in [7] is 1.86 µM; in [8], 13.2 µM; in assay [9], 17.2 µM.
Take `COc1ccc2cc(C(=O)/C=C/c3cccc(OC)c3OC)ccc2c1`: the GI50 in assay [1] was 19 µM; in assay [2], 13.3 µM; in assay [3] it was 18.3 µM; in [4], 7.11 µM; in [6] it was 17.5 µM; in [7], 3.76 µM. In addition, the GI50 in assay [8] was 15.6 µM; in assay [9], 25.3 µM; in assay [10] it was 4.58 µM. The TGI in assay [1] was 35.5 µM; in [2], 26.6 µM; in [3] it was 37.5 µM; in assay [4], 24.8 µM; in [6], 31.3 µM; in assay [7] it was 12.9 µM. The TGI stood at 33.5 µM in [8], 65.1 µM in assay [9] and 16.6 µM in assay [10].
`COC(=O)C1=C(c2ccc3c(c2)OCO3)O[C@H](c2ccc3c(c2)OCO3)[C@H]1COC(C)=O`: the TGI in [1] is more than 100 µM; in assay [2], 59.6 µM; in assay [3] it was more than 100 µM; in [4], more than 100 µM; in [5], more than 100 µM; in [6], more than 100 µM. The TGI in assay [7], in [9] and in assay [10] was more than 100 µM in each case.

Values taken from PubChem BioAssay (NCI).
